{"source": "paper PMC12670426", "about": "(Journal of Medicinal Chemistry, 2025)", "key": {"[1]": {"molecular_target": "T1, human galectin-1 (Gal-1, full length) (Homo sapiens, UniProt P09382)", "T1 construct": "Gal-1 is a prototype galectin consisting of a single CRD and was used in full length; 6xHis tag with TEV protease site (N, cleaved yes); made in house; host or cells: BL21 Escherichia coli (pET-15b)", "T1 sequence (P09382 2-135)": "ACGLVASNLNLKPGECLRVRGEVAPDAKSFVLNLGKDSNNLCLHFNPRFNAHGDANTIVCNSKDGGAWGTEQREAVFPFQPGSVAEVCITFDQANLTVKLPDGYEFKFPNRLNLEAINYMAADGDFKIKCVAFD", "test": "Competitive fluorescence polarization assay, Gal-1", "assay_type": "binding", "experimental": "(§1) Our investigation of the structure–activity relationship of N-aryl-N-lactosylamides started with an initial screening of substituted acetanilides (Table ). These compounds can be readily synthesized from a wide range of commercially available substituted anilines. Affinity was evaluated using a fluorescence polarization assay, which enables reliable determination of dissociation constants (K d) between small molecules and galectins. All inhibitors in this series were tested against the two most common human galectins: Gal-1 and Gal-3. Gal-1 is a prototype galectin consisting of a single CRD and was used in full length. In the case of Gal-3, which consists of the C-terminal CRD and N-terminal unfolded region, only the C-terminal domain was used (Gal-3C). Affinities were compared to methyl β-lactoside (β-LacOMe) as a baseline.\n(§2) Fluorescence polarization experiments for determining inhibitor affinities were performed using the same instrumentation and settings as described for the direct binding experiments. […] The galectin–probe mixture was subsequently added using a Certus Flex liquid handler (Fritz Gyger AG, Switzerland) to reach a final volume of 5 μL. Anisotropy was measured after 30–60 min incubation at 25 °C. Inhibitor dissociation constants (K d) were calculated using Wang’s exact cubic model for competitive binding implemented in the BindCurve package. Protein and probe concentrations used in these competitive experiments are provided in the Supporting Information.\n(§3) Competitive binding was modeled by Wang’s exact cubic model,3 which is written as […]\n(§4) r = rmin + (rmax − rmin) 3 (6) […]\n(§5) where r, rmin and rmax have the same meaning as in Equation 1. The coefficients a, b, and c are […]\n(§6) a = Kd∗ + Kd + [L∗]T + [L]T − [R]T (7) b = Kd∗([L]T − [R]T) + Kd([L∗]T − [R]T) + Kd∗ Kd (8) […]\n(§7) where Kd∗ is the dissociation constant of the probe, Kd is the dissociation constant of the […]\n(§8) the unlabeled ligand, and [R]T is the total concentration of the receptor. The angle θ is defined […]\n(§9) In the competitive binding experiments, the values of [L∗]T, [R]T and Kd∗ are known and [L]T is titrated. The values of minimal and maximal anisotropy rmin and rmax were fixed during fitting at the values of the minimal and maximal asymptotes obtained from the direct binding experiments. The value of Kd was calculated as the only unfixed parameter in the model.\n(§10) Experimental constants used for the competitive fluorescence polarization experiments are […]\n(§11) Table S2. Experimental constants used for competitive fluorescence polarization experiments. […]"}, "[2]": {"molecular_target": "T2, human galectin-3C (Gal-3C, C-terminal CRD of galectin-3) (Homo sapiens, UniProt P17931)", "T2 construct": "only the C-terminal domain was used (Gal-3C); 6xHis tag with TEV protease site (N, cleaved yes); made in house; host or cells: BL21 Escherichia coli (pET-15b)", "T2 sequence (P17931 118-248 limits assumed)": "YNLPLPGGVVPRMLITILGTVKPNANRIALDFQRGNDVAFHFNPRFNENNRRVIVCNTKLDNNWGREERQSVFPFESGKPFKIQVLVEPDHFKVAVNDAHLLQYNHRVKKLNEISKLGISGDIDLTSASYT", "test": "Competitive fluorescence polarization assay, Gal-3C", "assay_type": "binding", "experimental": "as §1, §2, §3, §4, §5, §6, §7, §8, §9, §10, §11"}, "[3]": {"conditions": "CSV supplement, unrounded mean, read-out: Gal1_IC50_mean_uM"}, "[4]": {"conditions": "CSV supplement, unrounded mean, read-out: Gal1_Kd_mean_uM"}, "[5]": {"conditions": "competitive fluorescence polarization, mean ± SD, read-out: Kd Gal-1"}, "[6]": {"conditions": "four-parameter logistic model, mean ± SD, read-out: IC50 Gal-1"}, "[7]": {"conditions": "CSV supplement, unrounded mean, read-out: Gal3C_IC50_mean_uM"}, "[8]": {"conditions": "CSV supplement, unrounded mean, read-out: Gal3C_Kd_mean_uM"}, "[9]": {"conditions": "competitive fluorescence polarization, mean ± SD, read-out: Kd Gal-3C"}, "[10]": {"conditions": "four-parameter logistic model, mean ± SD, read-out: IC50 Gal-3C"}}, "note": "Where two headings read alike, the source gives them in different places.", "data": [{"smiles": "CC(C)C(=O)N(c1cccc(C(=O)O)c1)[C@@H]1O[C@H](CO)[C@@H](O[C@@H]2O[C@H](CO)[C@H](O)[C@H](O)[C@H]2O)[C@H](O)[C@H]1O", "note": "[Compound 3s, N-[4-O-(β-D-Galactopyranosyl)-β-D-glucopyranosyl]-N-(3-carboxyphenyl)-2-methylpropanamide]", "values": [{"measurement": "IC50", "setting": "[1]; [3]", "result": 1800, "unit": "µM"}, {"measurement": "Kd", "setting": "[1]; [4]", "result": 1000, "unit": "µM"}, {"measurement": "Kd", "setting": "[1]; [5]", "result": "1000 ± 300", "unit": "µM"}, {"measurement": "IC50", "setting": "[1]; [6]", "result": "1800 ± 200", "unit": "µM"}, {"measurement": "IC50", "setting": "[2]; [7]", "result": 113, "unit": "µM"}, {"measurement": "Kd", "setting": "[2]; [8]", "result": 39.5, "unit": "µM"}, {"measurement": "Kd", "setting": "[2]; [9]", "result": "39 ± 4", "unit": "µM"}, {"measurement": "IC50", "setting": "[2]; [10]", "result": "110 ± 0.2", "unit": "µM"}]}, {"smiles": "O=C(O)c1cccc(N(C(=O)c2ccccc2)[C@@H]2O[C@H](CO)[C@@H](O[C@@H]3O[C@H](CO)[C@H](O)[C@H](O)[C@H]3O)[C@H](O)[C@H]2O)c1", "note": "[Compound 3t, N-[4-O-(β-D-Galactopyranosyl)-β-D-glucopyranosyl]-N-(3-carboxyphenyl)benzamide]", "values": [{"measurement": "IC50", "setting": "[1]; [3]", "result": 1310, "unit": "µM"}, {"measurement": "Kd", "setting": "[1]; [4]", "result": 841, "unit": "µM"}, {"measurement": "Kd", "setting": "[1]; [5]", "result": "840 ± 80", "unit": "µM"}, {"measurement": "IC50", "setting": "[1]; [6]", "result": "1300 ± 30", "unit": "µM"}, {"measurement": "IC50", "setting": "[2]; [7]", "result": 120, "unit": "µM"}, {"measurement": "Kd", "setting": "[2]; [8]", "result": 51.3, "unit": "µM"}, {"measurement": "Kd", "setting": "[2]; [9]", "result": "51 ± 10", "unit": "µM"}, {"measurement": "IC50", "setting": "[2]; [10]", "result": "120 ± 9", "unit": "µM"}]}, {"smiles": "O=C(O)c1cccc(N(C(=O)Cc2ccccc2)[C@@H]2O[C@H](CO)[C@@H](O[C@@H]3O[C@H](CO)[C@H](O)[C@H](O)[C@H]3O)[C@H](O)[C@H]2O)c1", "note": "[Compound 3u, N-[4-O-(β-D-Galactopyranosyl)-β-D-glucopyranosyl]-N-(3-carboxyphenyl)-2-phenylacetamide]", "values": [{"measurement": "IC50", "setting": "[1]; [3]", "result": 2150, "unit": "µM"}, {"measurement": "Kd", "setting": "[1]; [4]", "result": 1240, "unit": "µM"}, {"measurement": "Kd", "setting": "[1]; [5]", "result": "1200 ± 10", "unit": "µM"}, {"measurement": "IC50", "setting": "[1]; [6]", "result": "2100 ± 800", "unit": "µM"}, {"measurement": "IC50", "setting": "[2]; [7]", "result": 133, "unit": "µM"}, {"measurement": "Kd", "setting": "[2]; [8]", "result": 53.6, "unit": "µM"}, {"measurement": "Kd", "setting": "[2]; [9]", "result": "54 ± 6", "unit": "µM"}, {"measurement": "IC50", "setting": "[2]; [10]", "result": "130 ± 20", "unit": "µM"}]}, {"smiles": "COC(=O)c1cccc(N(C(C)=O)[C@@H]2O[C@H](CO)[C@@H](O[C@@H]3O[C@H](CO)[C@H](O)[C@H](O)[C@H]3O)[C@H](O)[C@H]2O)c1", "note": "[Compound 3v, N-[4-O-(β-D-Galactopyranosyl)-β-D-glucopyranosyl]-N-[3-(methylcarboxy)phenyl]acetamide]", "values": [{"measurement": "IC50", "setting": "[1]; [3]", "result": 655, "unit": "µM"}, {"measurement": "Kd", "setting": "[1]; [4]", "result": 432, "unit": "µM"}, {"measurement": "Kd", "setting": "[1]; [5]", "result": "430 ± 30", "unit": "µM"}, {"measurement": "IC50", "setting": "[1]; [6]", "result": "660 ± 100", "unit": "µM"}, {"measurement": "IC50", "setting": "[2]; [7]", "result": 241, "unit": "µM"}, {"measurement": "Kd", "setting": "[2]; [8]", "result": 94.6, "unit": "µM"}, {"measurement": "Kd", "setting": "[2]; [9]", "result": "95 ± 40", "unit": "µM"}, {"measurement": "IC50", "setting": "[2]; [10]", "result": "240 ± 30", "unit": "µM"}]}, {"smiles": "CNC(=O)c1cccc(N(C(C)=O)[C@@H]2O[C@H](CO)[C@@H](O[C@@H]3O[C@H](CO)[C@H](O)[C@H](O)[C@H]3O)[C@H](O)[C@H]2O)c1", "note": "[Compound 3w, N-[4-O-(β-D-Galactopyranosyl)-β-D-glucopyranosyl]-N-[3-(methylcarbamoyl)phenyl]acetamide]", "values": [{"measurement": "IC50", "setting": "[1]; [3]", "result": 666, "unit": "µM"}, {"measurement": "Kd", "setting": "[1]; [4]", "result": 445, "unit": "µM"}, {"measurement": "Kd", "setting": "[1]; [5]", "result": "440 ± 100", "unit": "µM"}, {"measurement": "IC50", "setting": "[1]; [6]", "result": "670 ± 90", "unit": "µM"}, {"measurement": "IC50", "setting": "[2]; [7]", "result": 220, "unit": "µM"}, {"measurement": "Kd", "setting": "[2]; [8]", "result": 88.1, "unit": "µM"}, {"measurement": "Kd", "setting": "[2]; [9]", "result": "88 ± 20", "unit": "µM"}, {"measurement": "IC50", "setting": "[2]; [10]", "result": "220 ± 6", "unit": "µM"}]}, {"smiles": "CC(=O)N(c1cccc(CO)c1)[C@@H]1O[C@H](CO)[C@@H](O[C@@H]2O[C@H](CO)[C@H](O)[C@H](O)[C@H]2O)[C@H](O)[C@H]1O", "note": "[Compound 3x, N-[4-O-(β-D-Galactopyranosyl)-β-D-glucopyranosyl]-N-[3-(hydroxymethyl)phenyl]acetamide]", "values": [{"measurement": "IC50", "setting": "[1]; [3]", "result": 842, "unit": "µM"}, {"measurement": "Kd", "setting": "[1]; [4]", "result": 542, "unit": "µM"}, {"measurement": "Kd", "setting": "[1]; [5]", "result": "540 ± 60", "unit": "µM"}, {"measurement": "IC50", "setting": "[1]; [6]", "result": "840 ± 90", "unit": "µM"}, {"measurement": "IC50", "setting": "[2]; [7]", "result": 273, "unit": "µM"}, {"measurement": "Kd", "setting": "[2]; [8]", "result": 106, "unit": "µM"}, {"measurement": "decrease of affinity toward Gal-3C compared to 3r", "setting": "[2]; compared to 3r", "result": 2, "unit": "fold"}, {"measurement": "Kd", "setting": "[2]; [9]", "result": "110 ± 30", "unit": "µM"}, {"measurement": "IC50", "setting": "[2]; [10]", "result": "270 ± 0.9", "unit": "µM"}]}, {"smiles": "CC(=O)N(c1cccc(-c2nnn[nH]2)c1)[C@@H]1O[C@H](CO)[C@@H](O[C@@H]2O[C@H](CO)[C@H](O)[C@H](O)[C@H]2O)[C@H](O)[C@H]1O", "note": "[Compound 3y, N-[4-O-(β-D-Galactopyranosyl)-β-D-glucopyranosyl]-N-[3-(1H-tetrazol-5-yl)phenyl]acetamide]", "values": [{"measurement": "IC50", "setting": "[1]; [3]", "result": 1260, "unit": "µM"}, {"measurement": "Kd", "setting": "[1]; [4]", "result": 812, "unit": "µM"}, {"measurement": "Kd", "setting": "[1]; [5]", "result": "810 ± 200", "unit": "µM"}, {"measurement": "IC50", "setting": "[1]; [6]", "result": "1300 ± 100", "unit": "µM"}, {"measurement": "IC50", "setting": "[2]; [7]", "result": 123, "unit": "µM"}, {"measurement": "Kd", "setting": "[2]; [8]", "result": 48.8, "unit": "µM"}, {"measurement": "Kd", "setting": "[2]; [9]", "result": "49 ± 20", "unit": "µM"}, {"measurement": "IC50", "setting": "[2]; [10]", "result": "120 ± 9", "unit": "µM"}]}, {"smiles": "CC(=O)N(c1cccc(-c2ccc(C)o2)c1)[C@@H]1O[C@H](CO)[C@@H](O[C@@H]2O[C@H](CO)[C@H](O)[C@H](O)[C@H]2O)[C@H](O)[C@H]1O", "note": "[Compound 3z, N-[4-O-(β-D-Galactopyranosyl)-β-D-glucopyranosyl]-N-[3-(5-methylfuran-2-yl)phenyl]acetamide]", "values": [{"measurement": "IC50", "setting": "[1]; [3]", "result": 860, "unit": "µM"}, {"measurement": "Kd", "setting": "[1]; [4]", "result": 558, "unit": "µM"}, {"measurement": "Kd", "setting": "[1]; [5]", "result": "560 ± 80", "unit": "µM"}, {"measurement": "IC50", "setting": "[1]; [6]", "result": "860 ± 100", "unit": "µM"}, {"measurement": "IC50", "setting": "[2]; [7]", "result": 327, "unit": "µM"}, {"measurement": "Kd", "setting": "[2]; [8]", "result": 121, "unit": "µM"}, {"measurement": "Kd", "setting": "[2]; [9]", "result": "120 ± 30", "unit": "µM"}, {"measurement": "IC50", "setting": "[2]; [10]", "result": "330 ± 1", "unit": "µM"}]}]}
